For assay [1], the target named is T1, p27-D2/Cdk2/cyclin A (Homo sapiens, UniProt P46527).
T1 construct: p27-D2 (residues 58-105 of human p27); 6xHis (N, cleaved yes); made in house; host or cells: E. coli for p27-D2
The experiment in a line: 2D 1H-15N TROSY-HSQC NMR displacement of p27-D2 from Cdk2/cyclin A. Format: binding. Conditions: 3 mM SJ403, 100 μM complex, 308 K. As to the method: We next used NMR spectroscopy to monitor the displacement of ^2H/^13C/^15N-labeled p27-D2 from Cdk2/cyclin A by SJ403; the complex of p27-D2 with Cdk2/cyclin A (100 μM) was prepared with a slight excess of ^2H/^13C/^15N-p27-D2 (mole ratio, 1.1:1.0 p27-D2:Cdk2/cyclin A). […] In this method, the relative population of the free state resonances (p^f; for the resonance of each p27-D2 residue) was determined as a fraction of the total intensity of both free and bound resonances for a given residue. These values were compared by forming the ratio of the two relative free state populations (p^fw/SJ403/p^fw/o SJ403); values greater than 1 indicated compound-dependent displacement. The relative populations for the bound state (p^b) were also determined for samples without (p^bw/o SJ403) and with SJ403 (p^bw/SJ403). […]
Figure 5 2D ^1H-^15N TROSY-HSQC NMR analysis of displacement of ^15N-p27-D2 from Cdk2/cyclin A by SJ403. 2D ^1H-^15N TROSY-HSQC NMR spectra of p27-D2/Cdk2/cyclin A in the absence (control) and presence of SJ403 (3 mM), respectively, were recorded. […]

The target of assay [2] is T2, p21-KID (Homo sapiens, UniProt P38936).
T2 construct: made in house
The experiment in a line: 2D 1H-15N HSQC NMR with p21-KID. The class given is binding. As to conditions: 1 mM compound, 20 μM p21-KID, 298 K. The method, then: Figure 8 Interaction of p21-KID with representative p27 fragment hits.
Screening and validation NMR experiments were performed at 298 K (25 °C) using either a Varian Inova 600 MHz spectrometer equipped with a triple resonance (HCN) room temperature gradient probe or a Bruker Avance 600 MHz spectrometer equipped with TCI cryogenic gradient probe and a SampleJet sample changer. Fragment molecules were initially analyzed as pools of five molecules dissolved at 10 mM each in DMSO-D6. […] For initial fragment screening experiments, one-dimensional (1D) ^1H- and WaterLOGSY[35] NMR spectra were recorded for compound pools without and with protein. […] DMSO-D6 was added to maintain a constant concentration (2% vol/vol). […] Tryptophan and tyrosine, respectively, were titrated into ^15N-p27-KID (100 μM) up to 3 mM. […] 2D ^1H-^15N TROSY-HSQC NMR experiments with ^2H/^13C/^15N-p27-D2/Cdk2/cyclin A and SJ403 have been recorded at 308 K (35 °C). 2D ^1H-^15N HSQC experiments of representative fragment hits (1 mM of SJ319843, group 1 and SJ403, group 2, respectively) with ^15N-p21-KID (20 μM) were recorded at 298 K using a Bruker Avance 600 MHz spectrometer. NMR spectra were processed using Bruker Topspin software and analyzed using computer-aided resonance assignment (CARA) software.

T2 sequence (P38936 9-84 limits assumed): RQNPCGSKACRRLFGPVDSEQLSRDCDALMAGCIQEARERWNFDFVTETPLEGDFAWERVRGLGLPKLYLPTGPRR
T1 sequence (P46527 58-105): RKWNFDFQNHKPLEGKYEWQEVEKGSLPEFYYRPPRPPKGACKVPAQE

Consider `CCn1c(C)c(C)n2c3c(=O)n(C)c(=O)n(C)c3nc12` [SJ403], for which the “displacement of p27-D2 from Cdk2/cyclin A by NMR” value in assay [1] is given as “partial displacement”. Moreover, the “interaction with p21-KID (1H chemical shift perturbations)” value in assay [2] was “interacted with residues near W49 and W65 of p21”.
